Structures can show the parent of a compound that is named as a salt. Where two headings read alike, the source gives them in different places.
Key:
[1] = molecular target: T1, GST fusion human ERK2 protein (Homo sapiens, UniProt P28482); test: ERK2 enzyme assay (2); format: biochemical; conditions: read-out: ERK2 enzyme inhibitory activity (2)
T1 construct: purchased Carna Biosciences, Inc; host or cells: E. coli expression system
Summary of the method: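 IC50 values come from mobility-shift measurement of phosphorylated versus unphosphorylated 5-FAM peptide substrate after EDTA quench. Beforehand, compound and 1.25 nmol/L E. coli-expressed GST–human ERK2 stood 15 min at room temperature (pH 7.5), then 1 mmol/L ATP and 4.25 μmol/L substrate (final) were added for 120 min at 25 °C.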

human PI3Kα protein = molecular target: T2, human PI3Kα protein (Homo sapiens, UniProt P42336); test: PI3Kα enzyme assay (ADP-Glo); format: biochemical; conditions: read-out: PI3Kα enzyme inhibitory activity
T2 construct: purchased Carna Biosciences, Inc; host or cells: baculovirus expression system
Summary of the method: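 Biotinylated human PI3Kα (baculovirus-expressed, 4.5 nmol/L) pre-incubated 15 min with compound in Tris-HCl pH 7.5, MgCl2, BSA; reaction 60 min at 25° C with 50 μmol/L PIP2 and 100 μmol/L ATP final. ADP quantified by ADP-Glo luminescence; IC50 calculated.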

T1 sequence (P28482 whole entry, the tested form may be a part): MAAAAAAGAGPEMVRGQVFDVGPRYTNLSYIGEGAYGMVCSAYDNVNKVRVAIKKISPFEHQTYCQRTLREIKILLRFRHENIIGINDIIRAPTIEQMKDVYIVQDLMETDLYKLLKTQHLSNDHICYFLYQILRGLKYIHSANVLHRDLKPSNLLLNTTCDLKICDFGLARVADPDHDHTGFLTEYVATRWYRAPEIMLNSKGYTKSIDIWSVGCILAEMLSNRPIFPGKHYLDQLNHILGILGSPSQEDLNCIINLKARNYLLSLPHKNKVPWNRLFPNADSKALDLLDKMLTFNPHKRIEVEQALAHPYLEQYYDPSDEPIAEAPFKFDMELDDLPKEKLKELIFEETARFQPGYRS
T2 sequence (P42336 whole entry): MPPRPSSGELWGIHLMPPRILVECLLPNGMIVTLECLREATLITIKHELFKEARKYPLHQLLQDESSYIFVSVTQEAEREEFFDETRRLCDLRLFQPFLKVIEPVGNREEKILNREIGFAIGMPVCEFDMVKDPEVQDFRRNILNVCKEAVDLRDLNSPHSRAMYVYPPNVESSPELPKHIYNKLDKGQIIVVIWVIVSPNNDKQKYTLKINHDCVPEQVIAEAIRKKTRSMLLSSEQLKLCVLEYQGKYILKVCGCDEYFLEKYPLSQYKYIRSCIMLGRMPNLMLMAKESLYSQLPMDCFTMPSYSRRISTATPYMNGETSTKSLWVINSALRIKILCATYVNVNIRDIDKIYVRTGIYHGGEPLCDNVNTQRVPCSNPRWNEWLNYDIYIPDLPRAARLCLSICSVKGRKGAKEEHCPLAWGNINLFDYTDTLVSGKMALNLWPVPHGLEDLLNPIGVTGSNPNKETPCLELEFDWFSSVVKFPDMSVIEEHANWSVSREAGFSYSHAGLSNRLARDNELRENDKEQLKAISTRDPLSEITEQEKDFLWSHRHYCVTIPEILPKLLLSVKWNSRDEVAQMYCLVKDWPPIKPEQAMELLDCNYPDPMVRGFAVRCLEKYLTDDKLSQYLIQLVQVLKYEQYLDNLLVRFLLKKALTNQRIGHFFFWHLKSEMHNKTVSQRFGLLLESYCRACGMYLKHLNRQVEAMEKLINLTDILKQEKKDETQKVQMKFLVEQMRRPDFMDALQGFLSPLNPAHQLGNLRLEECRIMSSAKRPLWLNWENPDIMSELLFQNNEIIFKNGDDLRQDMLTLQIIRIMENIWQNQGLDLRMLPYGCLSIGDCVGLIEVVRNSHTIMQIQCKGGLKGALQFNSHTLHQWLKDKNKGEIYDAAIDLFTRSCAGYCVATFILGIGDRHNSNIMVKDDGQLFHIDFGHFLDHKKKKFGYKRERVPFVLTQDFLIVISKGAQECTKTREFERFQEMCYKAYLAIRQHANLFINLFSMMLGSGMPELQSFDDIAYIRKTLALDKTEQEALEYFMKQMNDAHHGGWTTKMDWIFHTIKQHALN
T2 sequence (P27986 whole entry partner): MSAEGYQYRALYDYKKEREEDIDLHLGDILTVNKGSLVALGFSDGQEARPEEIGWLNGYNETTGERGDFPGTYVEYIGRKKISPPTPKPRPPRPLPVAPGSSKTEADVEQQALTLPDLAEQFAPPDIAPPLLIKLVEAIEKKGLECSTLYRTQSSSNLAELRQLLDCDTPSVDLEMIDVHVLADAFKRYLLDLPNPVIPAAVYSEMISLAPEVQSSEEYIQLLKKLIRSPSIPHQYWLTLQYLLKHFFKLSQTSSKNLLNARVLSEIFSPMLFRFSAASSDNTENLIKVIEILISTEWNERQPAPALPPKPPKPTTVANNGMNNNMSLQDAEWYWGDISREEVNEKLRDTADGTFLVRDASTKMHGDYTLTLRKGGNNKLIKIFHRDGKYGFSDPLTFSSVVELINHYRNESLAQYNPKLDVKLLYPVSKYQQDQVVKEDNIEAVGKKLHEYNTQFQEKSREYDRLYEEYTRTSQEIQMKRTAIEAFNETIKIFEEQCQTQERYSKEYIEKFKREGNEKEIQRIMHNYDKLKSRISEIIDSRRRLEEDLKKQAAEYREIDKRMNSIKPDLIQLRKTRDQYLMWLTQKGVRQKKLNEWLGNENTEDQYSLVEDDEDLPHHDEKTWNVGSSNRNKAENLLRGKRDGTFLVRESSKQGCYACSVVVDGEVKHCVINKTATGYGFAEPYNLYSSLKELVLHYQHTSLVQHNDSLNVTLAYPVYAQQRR

Compound	IC50 ([1]; ERK2 enzyme assay (2)) [µM]	IC50 (human PI3Kα protein) [µM]	IC50 [1] [µM]
CCN(CCO[Si](C)(C)C(C)(C)C)c1cnnc(Nc2ccc3ncc(-c4cnn(C)c4)cc3n2)c1 [Example 0524]	< 1	10 to 50	–
CC(C)c1cnnc(Nc2ccc3ncc(N4CCOC[C@H]4C)cc3n2)c1 [Example 0762, (R)-N-(5-isopropylpyridazin-3-yl)-7-(3-methylmorpholino)-1,5-naphthyridine-2-amine]	< 1	< 1	–
CC(C)c1cnnc(Nc2ccc3ncc(C(=O)O)cc3n2)c1 [Example 0639, 6-((5-isopropylpyridazin-3-yl)amino)-1,5-naphthyridine-3-carboxylic acid]	10 to 50	1 to 10	–
CC(C)c1cnnc(Nc2ccc3ncc(-c4cnn(C)c4)c(-c4ccncc4)c3n2)c1 [Example 0953, N-(5-isopropylpyridazin-3-yl)-7-(1-methyl-1H-pyrazol-4-yl)-8-(pyridin-4-yl)-1,5-naphthyridine-2-amine]	–	< 1	< 1
Cc1ccc(-c2cnc3ccc(Nc4cc(C(C)C)cnn4)nc3c2)cn1 [Example 0597]	< 1	1 to 10	–
CC(C)c1cnnc(Nc2ccc3ncc(-c4ncccn4)cc3n2)c1 [Example 0605]	< 1	< 1	–
CC(C)c1cnnc(Nc2ccc3ncc(-c4cn(C)nc4NC4CCCCC4)cc3n2)c1 [Example 0830, 7-(3-(cyclohexylamino)-1-methyl-1H-pyrazol-4-yl)-N-(5-isopropylpyridazin-3-yl)-1,5-naphthyridine-2-amine]	< 1	< 1	–
Cc1ccc(-c2nn(C)cc2-c2cnc3ccc(Nc4cc(C(C)C)cnn4)nc3c2)cn1 [Example 0734]	< 1	< 1	–
CC(C)c1cnnc(Nc2ccc3ncc(-c4cnn(C)c4-c4cccnc4)cc3n2)c1 [Example 0575]	< 1	< 1	–
CC(=O)N1CCCC(Nc2cnc3ccc(Nc4cc(C(C)C)cnn4)nc3c2)C1 (centres unmarked) [Example 0541]	1 to 10	< 1	–
CC(C)c1cnnc(Nc2ccc3ncc(-c4cn(C)nc4-c4cncnc4)cc3n2)c1 [Example 0553]	< 1	< 1	–
COc1cccc(-c2nn(C)cc2-c2cnc3ccc(Nc4cc(C(C)C)cnn4)nc3c2)c1 [Example 0452]	< 1	< 1	–
Cc1nc2ccc(Nc3cc(C(C)C)cnn3)nc2cc1-c1cn(C)nc1C [Example 0851, 7-(1,3-Dimethyl-1H-pyrazol-4-yl)-N-(5-isopropylpyridazin-3-yl)-6-methyl-1,5-naphthyridine-2-amine]	< 1	1 to 10	–
Cc1nn(C)cc1-c1cnc2ccc(Nc3cc(C(C)C)no3)nc2c1 [Example 0848, N-(7-(1,3-dimethyl-1H-pyrazol-4-yl)-1,5-naphthyridin-2-yl)-3-isopropylisoxazole-5-amine]	1 to 10	1 to 10	–
Cc1nn(C)cc1-c1cnc2ccc(Nc3cc(C4CCOCC4)cnn3)nc2c1 [Example 0760, 7-(1,3-Dimethyl-1H-pyrazol-4-yl)-N-(5-(tetrahydro-2H-pyran-4-yl)pyridazin-3-yl)-1,5-naphthyridine-2-amine]	< 1	< 1	–
CC(C)c1cnnc(Nc2ccc3ncc(-c4cn(C)nc4NCc4ccncc4)cc3n2)c1 [Example 0835]	< 1	< 1	–
Cn1cc(-c2cnc3ccc(Nc4cc(C(C)(C)C)cnn4)nc3c2)cn1 [Example 0526]	< 1	< 1	–
CC(C)c1cnnc(Nc2ccc3ncc(NC4CCC4)cc3n2)c1 [Example 0879]	< 1	< 1	–
COCCOC(CN1CCOCC1)Cn1cc(-c2cnc3ccc(Nc4cc(C(C)C)cnn4)nc3c2)cn1 (centres unmarked) [Example 0744]	< 1	< 1	–
CC(C)c1cnnc(Nc2ccc3nccc(-c4cnn(C)c4)c3n2)c1 [Example 0447, N-(5-isopropylpyridazin-3-yl)-8-(1-methyl-1H-pyrazol-4-yl)-1,5-naphthyridine-2-amine]	1 to 10	< 1	–
COCCN(C)c1nn(C)cc1-c1cnc2ccc(Nc3cc(C(C)C)cnn3)nc2c1 [Example 0945]	–	< 1	< 1
CC(C)c1cnnc(Nc2ccc3ncc(-c4cn(C)nc4COc4ccccc4)cc3n2)c1 [Example 0803]	< 1	< 1	–
CC(C)c1cnnc(Nc2ccc3ncc(NC4CNC4)cc3n2)c1 [Example 0905, N^7-(azetidin-3-yl)-N^2-(5-isopropylpyridazin-3-yl)-1,5-naphthyridine-2,7-diamine]	–	1 to 10	1 to 10
CC(C)c1cnnc(Nc2ccc3ncc(-c4cn(C)nc4COC4CNC4)cc3n2)c1 [Example 0822, 7-(3-((Azetidin-3-yloxy)methyl)-1-methyl-1H-pyrazol-4-yl)-N-(5-isopropylpyridazin-3-yl)-1,5-naphthyridine-2-amine]	< 1	< 1	–

Now from value to compound:

IC50 ([1]; ERK2 enzyme assay (2)) [µM]	IC50 (human PI3Kα protein) [µM]	IC50 [1] [µM]	Compound
< 1	< 1	–	CC(C)c1cnnc(Nc2ccc3ncc(-c4cnn(CCCCl)c4)cc3n2)c1 [Example 0468]
< 1	< 1	–	CC(C)c1cnnc(Nc2ccc3ncc(-c4cnn(CCCN5CC(N(C)S(C)(=O)=O)C5)c4)cc3n2)c1 [Example 0721, N-(1-(3-(4-(6-((5-isopropylpyridazin-3-yl)amino)-1,5-naphthyridin-3-yl)-1H-pyrazol-1-yl)propyl)azetidin-3-yl)-N-methylmethane sulfonamide]
< 1	< 1	–	CC(C)c1cnnc(Nc2ccc3ncc(-c4cnn(CCCN5CC(C(N)=O)C5)c4)cc3n2)c1 [Example 0670]
< 1	< 1	–	CC(C)c1cnnc(Nc2ccc3ncc(-c4cnn(CCCN(C)CC(F)(F)F)c4)cc3n2)c1 [Example 0700, N-(5-isopropylpyridazin-3-yl)-7-(1-(3-(methyl (2,2,2-trifluoroethyl)amino)propyl)-1H-pyrazol-4-yl)-1,5-naphthyridine-2-amine]
< 1	< 1	–	CC(C)c1cnnc(Nc2ccc3ncc(-c4cnn(CCC5CCNCC5)c4)cc3n2)c1 [Example 0488, hydrochloric acid salt of N-(5-isopropylpyridazin-3-yl)-7-(1-(2-(piperidin-4-yl)ethyl)-1H-pyrazol-4-yl)-1,5-naphthyridine-2-amine]
< 1	< 1	–	CC(C)c1cnnc(Nc2ccc3ncc(-c4cnn(Cc5ccc(N)nc5)c4)cc3n2)c1 [Example 0464]
< 1	< 1	–	CCC(CC)c1cnnc(Nc2ccc3ncc(-c4cnn(CCOC5CN(C(C)C)C5)c4)cc3n2)c1 [Example 0818]
< 1	< 1	–	CC(C)c1cnnc(Nc2ccc3ncc(-c4cnn(CCCN5CCN(C)CC5=O)c4)cc3n2)c1 [Example 0425]
< 1	< 1	–	CC(C)c1cnnc(Nc2ccc3ncc(-c4cn(C)nc4-c4cnn(C)c4)cc3n2)c1 [Example 0582]
–	< 1	< 1	CCOC(C)c1cnnc(Nc2ccc3ncc(-c4cnn(C)c4)cc3n2)c1 (centres unmarked) [Example 0920]
< 1	< 1	–	CC(C)c1cnnc(Nc2ccc3ncc(-c4cnn(CC5CCN(C(=O)C6CC6)CC5)c4)cc3n2)c1 [Example 0534]
< 1	< 1	–	CC(C)c1cnnc(Nc2ccc3ncc(-c4cnn(C[C@@H]5CCC(=O)N5)c4)cc3n2)c1 [Example 0556]
< 1	< 1	–	COc1cccc(Cn2cc(-c3cnc4ccc(Nc5cc(C(C)C)cnn5)nc4c3)cn2)n1 [Example 0412, N-(5-isopropylpyridazin-3-yl)-7-(1-((6-methoxypyridin-2-yl)methyl)-1H-pyrazol-4-yl)-1,5-naphthyridine-2-amine]
< 1	< 1	–	CC(C)c1cnnc(Nc2ccc3ncc(-c4cnn(CCCN5CCC(F)(F)CC5)c4)cc3n2)c1 [Example 0419, 7-(1-(3-(4,4-Difluoropiperidin-1-yl)propyl)-1H-pyrazol-4-yl)-N-(5-isopropylpyridazin-3-yl)-1,5-naphthyridine-2-amine]
< 1	< 1	–	CC(C)c1cnnc(Nc2ccc3ncc(-c4cnn(CCCN5CCOCC5C)c4)cc3n2)c1 (centres unmarked) [Example 0607, N-(5-isopropylpyridazin-3-yl)-7-(1-(3-(3-methylmorpholino)propyl)-1H-pyrazol-4-yl)-1,5-naphthyridine-2-amine]
< 1	< 1	–	CC(C)c1cnnc(Nc2ccc3ncc(-c4cnn(CCC5OCCCO5)c4)cc3n2)c1 [Example 0641, 7-(1-(2-(1,3-Dioxan-2-yl)ethyl)-1H-pyrazol-4-yl)-N-(5-isopropylpyridazin-3-yl)-1,5-naphthyridine-2-amine]
< 1	< 1	–	CCOC1CN(CCCn2cc(-c3cnc4ccc(Nc5cc(C(C)C)cnn5)nc4c3)cn2)C1 [Example 0676, N-(5-isopropylpyridazin-3-yl)-7-(1-(3-(3-ethoxyazetidin-1-yl)propyl)-1H-pyrazol-4-yl)-1,5-naphthyridine-2-amine]
< 1	< 1	–	CC(C)OC1CN(CCCn2cc(-c3cnc4ccc(Nc5cc(C(C)C)cnn5)nc4c3)cn2)C1 [Example 0710, 7-(1-(3-(3-Isopropoxyazetidin-1-yl)propyl)-1H-pyrazol-4-yl)-N-(5-isopropylpyridazin-3-yl)-1,5-naphthyridine-2-amine]
< 1	< 1	–	CCCCOC1CN(CCCn2cc(-c3cnc4ccc(Nc5cc(C(C)C)cnn5)nc4c3)cn2)C1 [Example 0707]
